O=C(OCCO)c1ccc(C(=O)OCCO)cc1
solubility (mole fraction)
Conditions | 283.15 K | 288.15 K | 293.15 K | 298.15 K | 303.15 K | 308.15 K | 313.15 K | 318.15 K | 323.15 K | 328.15 K
in ethanol | 0.000577 | 0.000802 | 0.00113 | 0.00141 | 0.00169 | 0.00249 | 0.00315 | 0.00395 | 0.00521 | 0.00656
in ethylene glycol | 0.000174 | 0.000264 | 0.000391 | 0.000554 | 0.000859 | 0.00118 | 0.0018 | 0.00255 | 0.0037 | 0.00499
in methanol | 0.000772 | 0.00104 | 0.00142 | 0.00184 | 0.00238 | 0.00329 | 0.00404 | 0.00517 | 0.00656 | 0.00815
in water | 1.7e-05 | 2.4e-05 | 3.2e-05 | 4.2e-05 | 5.8e-05 | 7.7e-05 | 9.6e-05 | 0.000132 | 0.000171 | 0.000221
